From patent US9603861B2, “Compositions and methods for treating hyperproliferative epidermal diseases” (DERMIPSOR LTD., priority 2005, dated 2017)

Key:
[1] = test system: human primary keratinocytes; test: Proliferation assay (MTT method), human primary keratinocytes; assay type: cell-based; conditions: NA in pharmacological concentrations, dose dependent
Method: The antiproliferative activity of calcipotriol and nicotinamide was tested in two model systems: the first a spontaneously immortalized human keratinocyte, which is referred to herein as “HaCat cells” or “HaCat keratinocytes”, and serves as a model for highly proliferative epidermis, such as, but not limited to, psoriatic epidermis (Okenfels et al, 1998), and as a model for effects of external modulators of epidermal differentiation (Paramio, et al., 1997). The second system includes rapidly proliferating human keratinocytes, which are referred to herein as “cultured human epidermal keratinocytes”, and serves as a model for detecting antiproliferative agents in the treatment of psoriasis (Nikoloff, et al., 1988). Human Epidermal Keratinocytes (passages 3-6), obtained from normal face-lift surgery, were cultivated in serum-free KGM®-2 BulletKit® (Clonetics, USA) medium with low calcium for accelerated proliferation of the keratinocytes. The viability and/or proliferation of HaCat cells and Cultured Human Epidermal Keratinocytes, following treatment with various concentrations of calcipotriol, nicotinamide (NA) or a combination thereof was determined by the MTT assay, according manufacturer in 96-well microtiter plates.

HaCat keratinocytes = test: Long-term NA treatment of HaCat keratinocytes, oxidative stress; assay type: cell-based, human; conditions: long-term treatment with NA
Description: Other long-term cultures of cells with other agents are similarly obtained by cultivating HaCat cells, for a prolonged period of time, in medium supplemented with combinations of NA, vitamin D and derivatives thereof and vitamin A.

HaCat cells [2] = test: Apoptosis and necrosis by fluorescence microscopy; assay type: cell-based, human
Method: Estimation of apoptosis and necrosis was analyzed using fluorescence microscopy as previously described (Harel et al, 2002). Briefly, HaCat cells were cultured on glass slides and exposed to various concentration of NA (5, 10, 20 and 50 mM). After 72 h the cells were stained with the DNA binding dyes Hoechst 33342 and propidium iodide. Viable cells were identified by intact nuclei and their blue fluorescence, necrotic cells by intact nuclei and red fluorescence, and cells in early or late phase of apoptosis, by fragmented nuclei and blue or red fluorescence. At least one thousand cells were counted for each treatment.

keratin 10 (K10) = test: Indirect immunofluorescence, keratin 10 expression; assay type: cell-based, human; conditions: 72 hours
Method: (§1) Effects of NA and or calcipotriol on early (keratin k10 expression) and late (involucrin expression) differentiation processes in HaCat cells were estimated by indirect immunofluorescence.
In brief, 2×10^4 cells/ml were seeded on glass coverslips into Petri dishes with 0, 5, 10 and 20 mM NA or calcipotriol. After 72 hours of incubation, cells on the glass coverslips were washed with PBS, fixed by ice-cold mixture of methanol:acetone (1:1) and incubated at −20° C. for 10 minutes. Fixed cells were washed in PBS and incubated with blocking buffer (1% BSA in PBS) for 10 minutes, to minimize non-specific absorption of the primary antibodies to the coverslips. Thereafter, the cells were incubated for 1 hour with primary monoclonal antibodies (Keratin 10 expression was detected by antihuman mouse monoclonal antibody, at 1/50 final dilution; Involucrin expression was detected by antihuman involucrin mouse monoclonal antibody at 1/100 final dilution), at 37° C. hour in a humidified chamber. Exhaustive, PBS-washed cells were incubated with fluorophor conjugated goat anti-mouse IgG, at 1/50 final dilution, for 30 minutes at room temperature. The slides were viewed under a Zeiss microscope (Axioskop-2) equipped with epifluorescence optics and the appropriate filters to avoid cross-channel contamination. […] On each slide, at least 500-1000 cells were scored.

HaCat cells [3] = test: Growth curve and mitotic activity; assay type: cell-based, human; conditions: 10 mM NA
Method: Growth curve and mitotic activity: 2×10^4 cells per ml were seeded in 24-well tissue culture plates and incubated without or with 10 mM NA. The cells were detached by trypsinization at different times (48 h-168 h) following passage and counted using a haemocytometer in tetra-aliquots. For estimation of mitotic activity the cells were cultured on glass coverslips into Petri dishes. After 72 h incubation with or without 10 mM NA the cells were fixed with methanol, stained with Giemsa stain and analyzed by light microscopy. Frequency of mitotic cells at different stages of mitotic cycle (pro-, meta-, ana- and telophases) was calculated. At least 1000 cells were counted for each experiment.

involucrin = test: Indirect immunofluorescence, involucrin expression; assay type: cell-based, human
Method: as §1
In brief, 2×10^4 cells/ml were seeded on glass coverslips into Petri dishes with 0, 5, 10 and 20 mM NA or calcipotriol. After 72 hours of incubation, cells on the glass coverslips were washed with PBS, fixed by ice-cold mixture of methanol:acetone (1:1) and incubated at −20° C. for 10 minutes. Fixed cells were washed in PBS and incubated with blocking buffer (1% BSA in PBS) for 10 minutes, to minimize non-specific absorption of the primary antibodies to the coverslips. Thereafter, the cells were incubated for 1 hour with primary monoclonal antibodies (Keratin 10 expression was detected by antihuman mouse monoclonal antibody, at 1/50 final dilution; Involucrin expression was detected by antihuman involucrin mouse monoclonal antibody at 1/100 final dilution), at 37° C. hour in a humidified chamber. Exhaustive, PBS-washed cells were incubated with fluorophor conjugated goat anti-mouse IgG, at 1/50 final dilution, for 30 minutes at room temperature. The slides were viewed under a Zeiss microscope (Axioskop-2) equipped with epifluorescence optics and the appropriate filters to avoid cross-channel contamination. The level of keratin 10 and involucrin expression was estimated by counting the positive cells relative to the total cell number. On each slide, at least 500-1000 cells were scored.

[4] = test system: benign and malignant epidermal cells; test: Differentiation markers in benign and malignant epidermal cells; assay type: cell-based
Method: (§2) Certain in vitro assays based on keratinocyte cell culture were performed to test NA and the combination of NA and calcipotriol. The experimental design has been described in PCT Patent Publication WO 01/51051, of some of the inventors of the present application.
(§3) Cornified Envelope Formation: Late differentiation processes in HaCat cells treated with NA and or calcipotriol were measured by determining the cornified cell envelope formation, according to the procedures described in Sun and Green (1976) and PCT publication WO 01/51051.
as §1

HaCat cells [5] = test: Cell cycle parameters by flow cytometry; assay type: cell-based, human; conditions: NA 72 h, dose dependent
Method: Determination of apoptosis and cell cycle parameters was performed by flow cytometry. Cells were seeded in 25 cm2 tissue culture flasks and cultured for 48 h, and then they were exposed to 5, 10 and 20 mM NA for 72 h. Flow cytometry was performed on nuclei prepared with a detergent-trypsin method and stained with propidium iodide (Vindelov et al, 1983).

A431 = test: Proliferation assay, A431 cells; assay type: cell-based; conditions: NA in pharmacological concentrations, dose dependent
Method: as §2

HaCat cells [6] = test: Cornified envelope formation; assay type: cell-based, human
Method: as §3

PARP = test: Immunoblot analysis of PARP expression; assay type: cell-based, human
Method: Immunoblot analysis of PARP expression: immune complexes were detected by incubation with secondary anti-mouse alkaline phosphatase conjugated antibody AP124A (dilution 1:5000) followed by developing with BCIP/NBT color substrate.

HaCat cells [7] = test: Proliferation assay (MTT method), HaCat cells; assay type: cell-based, human
Method: The antiproliferative activity of calcipotriol and nicotinamide was tested in two model systems: the first a spontaneously immortalized human keratinocyte, which is referred to herein as “HaCat cells” or “HaCat keratinocytes”, and serves as a model for highly proliferative epidermis, such as, but not limited to, psoriatic epidermis (Okenfels et al, 1998), and as a model for effects of external modulators of epidermal differentiation (Paramio, et al., 1997). The second system includes rapidly proliferating human keratinocytes, which are referred to herein as “cultured human epidermal keratinocytes”, and serves as a model for detecting antiproliferative agents in the treatment of psoriasis (Nikoloff, et al., 1988). These models have been used, according to the present invention, to test the antiproliferative efficacy of agents described herein. […] The viability and/or proliferation of HaCat cells and Cultured Human Epidermal Keratinocytes, following treatment with various concentrations of calcipotriol, nicotinamide (NA) or a combination thereof was determined by the MTT assay, according manufacturer in 96-well microtiter plates.

A431 cells = test: Apoptosis in A431 cells; assay type: cell-based
KM12 = test: Proliferation assay, KM12 cells; assay type: cell-based; conditions: NA in pharmacological concentrations, dose dependent
[8] = Skin permeation, Franz diffusion cell; assay type: in vitro ADME, porcine; conditions: formulations CP and CPNA, 12 hours; QL 1.3 ng/mL
Method: Three formulations were prepared. The first comprised Nicotinamide (NA, 2.1 mg/g), the second Calcipotriol (CP, 50 μg/g) and the third, a combination of Calcipotriol (50 μg/g) and Nicotinamide (2.1 mg/g)(CPNA).
The Franz cell assembly and porcine ear skin are used for measuring permeation of drugs through the skin in vitro from various systems and dosage forms (Dick et al. 1992; Simon, et al. 2000; Touitou et al. 1998; Chien 1992). The experiments were carried out in vitro using the Franz diffusion cell assembly and full-thickness skin from porcine ear. The diffusion cells are made from an inert material and the assembly allows for good receiver-fluid mixture and temperature control.
Porcine ear skin was excised from the outer part of the ear and separated from the underlying cartilage. The skin was stored frozen at −20° C. until use, always less than one week. […] A quantity of 100 mg test formulation was placed on 1.77 cm^2 skin in the donor compartment. […]
The experiments were run non-occluded for 12 hours. […] The samples were analyzed for Nicotinamide and Calcipotriol concentrations by HPLC as further described. […]
HPLC assays: The HPLC assays of nicotinamide and calcipotriol were carried as follows: Nicotinamide was analyzed in a Waters Alliance 2795 LC and Quattro Micro™ HPL chromotograph LC-MS system with Hypersil BDS C18, 3 μm, 150×2.1 mm (CN 28103-152130, batch #4796) column. […]

NC(=O)c1cccnc1 [NA, Nicotinamide]
Proliferation of human primary keratinocytes [1]: significantly inhibited
anti-oxidative enzymes (glutathione peroxidase and catalase) (HaCat keratinocytes): high levels of anti-oxidative enzymes
protection to oxidative stress (hydrogen peroxide) (HaCat keratinocytes): high level of protection to oxidative stress
apoptotic death in HaCat cells (summary statement) (HaCat cells [2]): does not induce apoptotic death
apoptogenic effect (HaCat cells [2]; 20 mM and 50 mM NA, 72 h): significant apoptogenic effect
cells in stage of early apoptosis (HaCat cells [2]; 50 mM NA): 9%
effected cells with signs of late apoptosis (HaCat cells [2]; 50 mM NA): about 91%
necrotic cell death (HaCat cells [2]; all tested NA concentrations (5-50 mM)): no tested concentration of NA induced necrotic cell death
K10 expression compared to control cells (keratin 10 (K10); 5 mM to 10 mM NA): no effect
stimulation of K10 expression (keratin 10 (K10); 20 mM NA): 3 fold
growth curve (HaCat cells [3]; 48-168 hours): growth retardation
percentage of mitotic cells, times lower compared to untreated (HaCat cells [3]; 72 h): about 2.5 times
increase of involucrin expression vs control (involucrin; 5 mM NA): about 2 times
level of involucrin expression (positive cells) (involucrin; 5 mM NA, control 6.0±1.22%): 11.2±1.68%
frequency of involucrin positive cells (involucrin; 10 mM NA): 11.0±1.13%
frequency of involucrin positive cells (involucrin; 20 mM NA): 15.1±3.93%
differentiation processes: K10, Involucrin, enveloped cornified cell formation markers [4]: promotes the differentiation processes
frequency of cells in G0-G1, S and G2-M phases (HaCat cells [5]): reduction of the cell number in S and G2-M-phases
Proliferation of A431 (A431): significantly inhibited
frequency of basal and cornified envelope cells (HaCat cells [6]; 5 mM or 10 mM NA): no statistically significant effect
cornified envelope cell formation (HaCat cells [6]; 15 mM NA): increased
level of basal cells (HaCat cells [6]; 15 mM NA, untreated 58.6±10.24%): 25.6±5.76%
frequency of basal cells, of total cell population (HaCat cells [6]; 20 mM NA): about 15%
frequency of envelope cornified cells, of total cell population (HaCat cells [6]; 20 mM NA, untreated 4.4±2.78%): about 15%
PARP expression (Western blot) (PARP; 10 mM or 20 mM NA): express a basal level of undegraded 116 kDa PARP full protein
PARP expression (Western blot) (PARP; 50 mM NA, 85 kDa cleavage fragment appears): induced degradation of PARP
rate of HaCat cell proliferation (HaCat cells [7]; 0.5-5 mM NA, 72 h): did not change the rate of HaCat cell proliferation
Proliferation of HaCat keratinocytes (HaCat cells [7]; NA in pharmacological concentrations, dose dependent): significantly inhibited
apoptotic death in A431 cells (A431 cells): does not induce apoptotic death
Proliferation of KM12 (KM12): significantly inhibited

C=C1/C(=C\C=C2/CCC[C@]3(C)[C@@H]([C@H](C)/C=C/[C@@H](O)C4CC4)CC[C@@H]23)C[C@@H](O)C[C@@H]1O [calcipotriol, Calcipotriol]
calcipotriol in the receiver compartment [8]: No calcipotriol was detected
